For one experiment, the target named is T1, DDR1 (Homo sapiens, UniProt Q08345).
T1 construct: purchased Carna Biosciences
As to the kind of experiment: LanthaScreen Europium Kinase Binding assay, DDR1. The note with it: 5 nM DDR1, 20 nM Kinase Tracer 178, 1 h at rt; Ki from IC50 by Cheng-Prusoff; read-out: Ki DDR1. As for the experimental part: (§1) DDR1 and DDR2 binding assays were performed using Life Technologies LanthaScreen™ Europium Kinase Binding assay. The compounds were incubated with 5 nM DDR1 (Carna Biosciences) or 5 nM DDR2 (Life Technologies) for 1 h at rt in white 384-well OptiPlate (PerkinElmer), containing 20 nM or 10 nM Kinase Tracer 178 respectively and 2 nM Europium labelled anti-GST antibody (Life Technologies) in assay buffer (50 mM HEPES pH 7.5, 10 mM MgCI2, 1 mM EGTA and 0.01% BRIJ35). The ratio of fluorescence emission 665 nm/615 nm after excitation at 340 nm was obtained using the Tecan Spark 20M plate reader. IC50 values were determined in GraphPad Prism 7.0 software, using 4 parameter model: log(inhibitor) vs. response. IC50 values were converted in Ki using the Cheng-Prusoff equation (Ki=IC50/(1+[Tracer]/Kd).
For orientation: Time-resolved FRET reads energy transfer from a long-lived donor to a nearby acceptor.

Another experiment has as its target T2, DDR2 (Homo sapiens, UniProt Q16832).
T2 construct: purchased Life Technologies
T2 sequence (Q16832 22-855): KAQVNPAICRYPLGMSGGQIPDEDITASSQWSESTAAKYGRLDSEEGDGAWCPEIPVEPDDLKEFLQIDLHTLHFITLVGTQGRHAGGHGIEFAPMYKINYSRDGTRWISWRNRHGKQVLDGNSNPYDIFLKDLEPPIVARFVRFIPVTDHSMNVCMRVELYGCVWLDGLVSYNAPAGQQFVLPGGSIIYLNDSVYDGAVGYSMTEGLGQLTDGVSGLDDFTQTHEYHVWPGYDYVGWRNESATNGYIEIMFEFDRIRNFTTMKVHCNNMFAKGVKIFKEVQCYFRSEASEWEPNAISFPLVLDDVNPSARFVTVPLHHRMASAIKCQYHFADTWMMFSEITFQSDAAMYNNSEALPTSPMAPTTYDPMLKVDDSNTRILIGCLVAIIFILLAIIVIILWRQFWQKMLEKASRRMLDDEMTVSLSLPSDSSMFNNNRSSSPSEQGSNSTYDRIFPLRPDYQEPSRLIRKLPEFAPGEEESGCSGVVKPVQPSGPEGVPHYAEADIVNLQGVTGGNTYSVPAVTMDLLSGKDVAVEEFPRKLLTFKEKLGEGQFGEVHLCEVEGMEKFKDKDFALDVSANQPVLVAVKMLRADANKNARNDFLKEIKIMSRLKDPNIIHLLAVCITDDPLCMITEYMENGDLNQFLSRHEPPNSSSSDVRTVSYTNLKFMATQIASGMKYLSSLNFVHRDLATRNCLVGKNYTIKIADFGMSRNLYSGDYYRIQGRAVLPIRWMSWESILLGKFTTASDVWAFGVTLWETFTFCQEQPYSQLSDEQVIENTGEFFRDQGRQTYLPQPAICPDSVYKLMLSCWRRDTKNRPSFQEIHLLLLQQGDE
Nature of the experiment: LanthaScreen Europium Kinase Binding assay, DDR2. The conditions noted are these: 5 nM DDR2, 10 nM Kinase Tracer 178, 1 h at rt; Ki from IC50 by Cheng-Prusoff; read-out: Ki DDR2. The procedure: as §1

T1 sequence (Q08345 19-913): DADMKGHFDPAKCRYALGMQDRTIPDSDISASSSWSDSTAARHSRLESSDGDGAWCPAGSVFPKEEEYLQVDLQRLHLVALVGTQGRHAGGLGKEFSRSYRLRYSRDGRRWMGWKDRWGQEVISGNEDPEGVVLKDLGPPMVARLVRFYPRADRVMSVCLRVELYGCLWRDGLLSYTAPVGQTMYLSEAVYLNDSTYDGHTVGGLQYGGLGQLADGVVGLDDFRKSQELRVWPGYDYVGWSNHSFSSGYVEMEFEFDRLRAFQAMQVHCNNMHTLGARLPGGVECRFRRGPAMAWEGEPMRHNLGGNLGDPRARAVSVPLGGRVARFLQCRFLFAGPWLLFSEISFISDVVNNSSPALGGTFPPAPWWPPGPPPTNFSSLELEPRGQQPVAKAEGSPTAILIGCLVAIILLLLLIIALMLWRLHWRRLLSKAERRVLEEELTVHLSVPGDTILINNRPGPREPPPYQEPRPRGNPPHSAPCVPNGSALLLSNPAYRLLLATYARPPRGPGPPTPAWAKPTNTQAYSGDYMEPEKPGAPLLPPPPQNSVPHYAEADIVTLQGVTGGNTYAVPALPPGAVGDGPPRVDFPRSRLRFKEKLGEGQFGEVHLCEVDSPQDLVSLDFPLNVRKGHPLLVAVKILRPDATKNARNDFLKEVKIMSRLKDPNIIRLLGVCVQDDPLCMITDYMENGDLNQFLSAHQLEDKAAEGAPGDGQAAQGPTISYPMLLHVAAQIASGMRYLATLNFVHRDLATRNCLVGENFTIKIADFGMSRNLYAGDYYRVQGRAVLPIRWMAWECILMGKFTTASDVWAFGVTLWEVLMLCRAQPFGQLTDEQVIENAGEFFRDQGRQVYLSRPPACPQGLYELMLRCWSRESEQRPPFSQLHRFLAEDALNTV

As for `Cc1ccc(C(=O)Nc2cc(C(F)(F)F)ncn2)cc1[C@@H]1CCN(c2cncc(C#N)c2)C1` [Example 8, (S)-3-(1-(5-cyanopyridin-3-yl)pyrrolidin-3-yl)-4-methyl-N-(6-(trifluoromethyl)pyrimidin-4-yl)benzamide], the Ki (commonly the equilibrium dissociation constant of an inhibitor or competing ligand from its target) at DDR1 was below 5 nM; at DDR2, 5 to 25 nM.
For `Cc1ccc(C(=O)Nc2cc(OC(F)(F)F)ccn2)cc1[C@@H]1CCN(c2cncc(C(N)=O)c2)C1` [Example 9, (S)-5-(3-(2-methyl-5-((4-(trifluoromethoxy)pyridin-2-yl)carbamoyl)phenyl)pyrrolidin-1-yl)nicotinamide], in that order: below 5 nM and below 5 nM.
Take `Cc1ccc(C(=O)Nc2ccc(OC(F)(F)F)cn2)cc1[C@@H]1CCN(c2cncc(C(N)=O)c2)C1` [Example 10, (S)-5-(3-(2-methyl-5-((5-(trifluoromethoxy)pyridin-2-yl)carbamoyl)phenyl)pyrrolidin-1-yl)nicotinamide]: the figures for the Ki at DDR1 and at DDR2 were below 5 nM and 5 to 25 nM, respectively.
In the case of `Cc1ccc(C(=O)Nc2cc(C(C)(C)C)on2)cc1[C@@H]1CCN(c2cncc(C(N)=O)c2)C1` [Example 11, (S)-5-(3-(5-((5-(tert-butyl)isoxazol-3-yl)carbamoyl)-2-methylphenyl)pyrrolidin-1-yl)nicotinamide], the Ki at DDR1 and on DDR2 was below 5 nM in each case.
`Cc1ccc(C(=O)Nc2cc(OC(F)(F)F)ccn2)cc1[C@@H]1CCN(c2cncnc2)C1` [Example 12, (S)-4-methyl-3-(1-(pyrimidin-5-yl)pyrrolidin-3-yl)-N-(4-(trifluoro-methoxy)pyridin-2-yl)benzamide]: the Ki at DDR1 and at DDR2 was below 5 nM each time.
Regarding `Cc1ccc(C(=O)Nc2cc(C(C)(C)C)n(C)n2)cc1[C@@H]1CCN(c2cncnc2)C1` [Example 13, (S)-N-(5-(tert-butyl)-1-methyl-1H-pyrazol-3-yl)-4-methyl-3-(1-(pyrimidin-5-yl)pyrrolidin-3-yl)benzamide], the Ki at DDR1 and at DDR2 was below 5 nM in each case.
For `Cc1ccc(C(=O)Nc2cc(C(C)(C)C(F)(F)F)on2)cc1[C@@H]1CCN(c2cncnc2)C1` [Example 14, (S)-4-methyl-3-(1-(pyrimidin-5-yl)pyrrolidin-3-yl)-N-(5-(1,1,1-trifluoro-2-methylpropan-2-yl)isoxazol-3-yl)benzamide], the Ki at DDR1 and at DDR2 was below 5 nM in each case.
In the case of `Cc1ccc(C(=O)Nc2cc(C(F)(F)F)ccn2)cc1[C@@H]1CCN(c2cncnc2)C1` [Example 15, (S)-4-methyl-3-(1-(pyrimidin-5-yl)pyrrolidin-3-yl)-N-(4-(trifluoromethyl)pyridin-2-yl)benzamide], the Ki at DDR1 and on DDR2 was below 5 nM each time.
Take `Cc1ccc(C(=O)Nc2cc(C(C)(C)C)on2)cc1[C@@H]1CCN(c2cncnc2)C1` [Example 16, (S)-N-(5-(tert-butyl)isoxazol-3-yl)-4-methyl-3-(1-(pyrimidin-5-yl)pyrrolidin-3-yl)benzamide]: the Ki at DDR1 and at DDR2 was below 5 nM each time.
For the molecule `Cc1ccc(C(=O)Nc2cc(C(C)(C)C)nn2C)cc1[C@@H]1CCN(c2cncnc2)C1` [Example 17, (S)-N-(3-(tert-butyl)-1-methyl-1H-pyrazol-5-yl)-4-methyl-3-(1-(pyrimidin-5-yl)pyrrolidin-3-yl)benzamide], the Ki is below 5 nM on DDR1 and 5 to 25 nM at DDR2.
The like results for `Cc1ccc(C(=O)Nc2cncc(OC(F)(F)F)c2)cc1[C@@H]1CCN(c2cncnc2)C1` [Example 18, (S)-4-methyl-3-(1-(pyrimidin-5-yl)pyrrolidin-3-yl)-N-(5-(trifluoromethoxy)pyridin-3-yl)benzamide] were, in that order, below 5 nM and below 5 nM.
On to `Cc1ccc(C(=O)Nc2cc(C(C)(C)C)no2)cc1[C@@H]1CCN(c2cncnc2)C1` [Example 19, (S)-N-(3-(tert-butyl)isoxazol-5-yl)-4-methyl-3-(1-(pyrimidin-5-yl)pyrrolidin-3-yl)benzamide], for which the inhibition constant (Ki) on DDR1 and at DDR2 was below 5 nM in each case.
For `Cc1ccc(C(=O)Nc2ccc(OC(F)(F)F)cn2)cc1[C@@H]1CCN(c2cncnc2)C1` [Example 20, (S)-4-methyl-3-(1-(pyrimidin-5-yl)pyrrolidin-3-yl)-N-(5-(trifluoromethoxy)pyridin-2-yl)benzamide], the Ki is below 5 nM on DDR1 and 5 to 25 nM on DDR2.
Turning to `Cc1ccc(C(=O)Nc2cc(OC(F)F)ccn2)cc1[C@@H]1CCN(c2cncnc2)C1` [Example 21, (S)-N-(4-(difluoromethoxy)pyridin-2-yl)-4-methyl-3-(1-(pyrimidin-5-yl)pyrrolidin-3-yl)benzamide], the Ki at DDR1 and at DDR2 was below 5 nM throughout.
In the case of `Cc1ccc(C(=O)Nc2cncc(C(F)(F)F)c2)cc1[C@@H]1CCN(c2cncc(C(F)F)c2)C1` [Example 22, (S)-3-(1-(5-(difluoromethyl)pyridin-3-yl)pyrrolidin-3-yl)-4-methyl-N-(5-(trifluoromethyl)pyridin-3-yl)benzamide], the Ki at DDR1 is below 5 nM; on DDR2 it was 5 to 25 nM.
For `Cc1ccc(C(=O)Nc2cncc(C(F)(F)F)c2)cc1[C@@H]1CCN(c2cncc(C(=O)NCCN(C)C)c2)C1` [Example 23, (S)-N-(2-(dimethylamino)ethyl)-5-(3-(2-methyl-5-((5-(trifluoromethyl)pyridin-3-yl)carbamoyl)phenyl)pyrrolidin-1-yl)nicotinamide], in that order: below 5 nM and 5 to 25 nM.
Regarding `COCCNC(=O)c1cncc(N2CC[C@@H](c3cc(C(=O)Nc4cncc(C(F)(F)F)c4)ccc3C)C2)c1` [Example 24, (S)-N-(2-methoxyethyl)-5-(3-(2-methyl-5-((5-(trifluoromethyl)pyridin-3-yl)carbamoyl)phenyl)pyrrolidin-1-yl)nicotinamide], the Ki on DDR1 and on DDR2 was below 5 nM each time.
With `COc1ncc(N2CC[C@@H](c3cc(C(=O)Nc4cncc(C(F)(F)F)c4)ccc3C)C2)cn1` [Example 25, (S)-3-(1-(2-methoxypyrimidin-5-yl)pyrrolidin-3-yl)-4-methyl-N-(5-(trifluoromethyl)pyridin-3-yl)benzamide], the Ki on DDR1 is below 5 nM; on DDR2, 5 to 25 nM.
Regarding `Cc1ccc(C(=O)Nc2cncc(C(F)(F)F)c2)cc1[C@@H]1CCN(c2cncc(C#N)c2)C1` [Example 27, (S)-3-(1-(5-cyanopyridin-3-yl)pyrrolidin-3-yl)-4-methyl-N-(5-(trifluoromethyl)pyridin-3-yl)benzamide], the inhibition constant Ki at DDR1 and at DDR2 was below 5 nM in each case.
Turning to `CC(=O)Nc1cncc(N2CC[C@@H](c3cc(C(=O)Nc4cncc(C(F)(F)F)c4)ccc3C)C2)c1` [Example 28, (S)-3-(1-(5-acetamidopyridin-3-yl)pyrrolidin-3-yl)-4-methyl-N-(5-(trifluoromethyl)pyridin-3-yl)benzamide], the Ki at DDR1 and on DDR2 was below 5 nM each time.
On to `CNC(=O)c1cncc(N2CC[C@@H](c3cc(C(=O)Nc4cncc(C(F)(F)F)c4)ccc3C)C2)c1` [Example 29, (S)-N-methyl-5-(3-(2-methyl-5-((5-(trifluoromethyl)pyridin-3-yl)carbamoyl)phenyl)pyrrolidin-1-yl)nicotinamide], for which the inhibition constant Ki on DDR1 and on DDR2 was below 5 nM each time.
On to `Cc1ccc(C(=O)Nc2cncc(C(F)(F)F)c2)cc1[C@@H]1CCN(c2cncc(C(=O)NCCO)c2)C1` [Example 30, (S)-N-(2-hydroxyethyl)-5-(3-(2-methyl-5-((5-(trifluoromethyl)pyridin-3-yl)carbamoyl)phenyl)pyrrolidin-1-yl)nicotinamide], for which the Ki was below 5 nM on DDR1 and 5 to 25 nM at DDR2.
The like results for `Cc1ccc(C(=O)Nc2cncc(C(F)(F)F)c2)cc1[C@@H]1CCN(c2cnn3ccncc23)C1` [Example 32, (S)-4-methyl-3-(1-(pyrazolo[1,5-a]pyrazin-3-yl)pyrrolidin-3-yl)-N-(5-(trifluoromethyl)pyridin-3-yl)benzamide] were, in that order, below 5 nM and below 5 nM.
